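These data come from cells grown in 96-well plates and exposed to compound for 48 hours at five concentrations. At the GI50, growth is halved. Definition used: TGI = concentration required for complete inhibition of growth.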

Here are results for 15 compounds from PubChem BioAssay (NCI).

Among the test systems are 786-0 renal; HL-60(TB) leukemia; HOP-92 NSCLC; HT29 colon; NCI-H460 lung; OVCAR-3 ovarian; OVCAR-8 ovarian; SF-295 CNS; SN12C renal; SR leukemia.
What all share (assay): NCI anticancer screen, dose series, 48 h

On to `O=C(CCc1nnc2sc(-c3ccc(Cl)cc3Cl)nn12)c1nc2ccccc2[nH]1`, for which the GI50 in the assay with 786-0 renal was 1.48 µM; in the assay on HL-60(TB) leukemia, 1.24 µM; in the assay with HOP-92 NSCLC, 0.391 µM; with HT29 colon, 0.374 µM; in the assay with NCI-H460 lung it was 0.988 µM; in the assay with OVCAR-3 ovarian, 0.491 µM. Moreover, the GI50 in the assay with OVCAR-8 ovarian is 1.48 µM; with SF-295 CNS, 1.65 µM; in the assay with SN12C renal, 1.41 µM; with SR leukemia, 0.301 µM. Besides, the TGI was determined as 2.89 µM in the assay on 786-0 renal; 5.52 µM in the assay on HL-60(TB) leukemia; 1.86 µM with HOP-92 NSCLC; 2.01 µM in the assay on HT29 colon; 2.39 µM in the assay on NCI-H460 lung; 1.71 µM in the assay with OVCAR-3 ovarian. The TGI with OVCAR-8 ovarian was over 23.4 µM; in the assay on SF-295 CNS, 5.56 µM; in the assay with SN12C renal, 4.22 µM.
Consider `NC12CC3CC(C1)CC(C(=O)O)(C3)C2`, for which the TGI in the assay with 786-0 renal, in the assay with HL-60(TB) leukemia, with HOP-92 NSCLC, with HT29 colon, with NCI-H460 lung and with OVCAR-3 ovarian was over 100 µM throughout. The TGI with OVCAR-8 ovarian, in the assay with SF-295 CNS, in the assay on SN12C renal and with SR leukemia was over 100 µM in each case.
On to `Nc1nc2c(nnn2C2CC(O)C(CO)O2)c(=O)[nH]1` (centres undefined), for which the GI50 with 786-0 renal is 2.99 µM; in the assay with HL-60(TB) leukemia it was 1.15 µM; with HOP-92 NSCLC, 1.62 µM; in the assay on HT29 colon, 13.5 µM; with NCI-H460 lung, 7.4 µM; in the assay with OVCAR-3 ovarian, 4.78 µM. In addition, the GI50 in the assay on OVCAR-8 ovarian was 3.71 µM; in the assay on SF-295 CNS it was 2.54 µM; with SN12C renal it was 5.44 µM; in the assay on SR leukemia, 2.54 µM. For the same compound, the TGI with 786-0 renal is over 100 µM; in the assay on HL-60(TB) leukemia, over 38.1 µM; with HOP-92 NSCLC, 51.1 µM; in the assay on HT29 colon it was over 100 µM; with NCI-H460 lung it was over 100 µM; with OVCAR-3 ovarian, over 69 µM. The TGI is over 100 µM in the assay on OVCAR-8 ovarian, over 56.3 µM in the assay with SF-295 CNS, over 100 µM with SN12C renal and over 76.2 µM in the assay with SR leukemia.
For `CC(SC(=S)N1CCOCC1)c1cc2oc(=O)n(C)c2cc1Cl` (centres undefined), the TGI in the assay on 786-0 renal is over 100 µM; with HL-60(TB) leukemia, over 100 µM; in the assay with HOP-92 NSCLC, over 10 µM; in the assay with HT29 colon, over 100 µM; in the assay with NCI-H460 lung it was over 100 µM; in the assay on OVCAR-3 ovarian, over 100 µM. Besides, the TGI with OVCAR-8 ovarian, in the assay with SF-295 CNS, with SN12C renal and with SR leukemia was over 100 µM each time.
Take `Nc1nc(N(Cc2ccccc2)c2ccccc2)c2cn[nH]c2n1`: the GI50 was 4.63 µM in the assay on 786-0 renal; 1.57 µM with HL-60(TB) leukemia; 1.42 µM in the assay with HOP-92 NSCLC; 3.54 µM with HT29 colon; 4.39 µM in the assay on NCI-H460 lung; 3.34 µM in the assay on OVCAR-3 ovarian. Besides, the GI50 in the assay on OVCAR-8 ovarian was 6.01 µM; in the assay with SF-295 CNS it was 2.87 µM; in the assay on SN12C renal, 5.71 µM; in the assay on SR leukemia, 1.3 µM. Further, the TGI was over 100 µM in the assay on 786-0 renal; 6.6 µM in the assay on HL-60(TB) leukemia; over 100 µM in the assay on HOP-92 NSCLC; over 100 µM with HT29 colon; over 100 µM with NCI-H460 lung; 41.1 µM in the assay on OVCAR-3 ovarian. For the same compound, the TGI with OVCAR-8 ovarian was over 100 µM; with SF-295 CNS, 62.4 µM; with SN12C renal, over 100 µM; with SR leukemia, 5.64 µM.
Consider `O=C(CC1C(=O)NN(c2ccc(Br)cc2)C1=O)c1cc(O)ccc1O` (centres undefined), for which the GI50 was 22.4 µM in the assay with 786-0 renal; 23.5 µM with HL-60(TB) leukemia; 11.6 µM in the assay with HOP-92 NSCLC; 22 µM in the assay with HT29 colon; 23 µM with NCI-H460 lung; 7.41 µM with OVCAR-3 ovarian. The GI50 in the assay on OVCAR-8 ovarian was 18.4 µM; in the assay with SF-295 CNS, 11 µM; in the assay on SN12C renal, 13.6 µM; in the assay on SR leukemia it was over 50 µM. Also, the TGI with 786-0 renal is over 50 µM; with HL-60(TB) leukemia it was over 50 µM; with HOP-92 NSCLC, over 50 µM; with HT29 colon, over 50 µM; with NCI-H460 lung it was over 50 µM; in the assay on OVCAR-3 ovarian, 21.7 µM. The TGI was over 50 µM in the assay on OVCAR-8 ovarian, 29.7 µM in the assay with SF-295 CNS, 40.3 µM with SN12C renal and over 50 µM in the assay on SR leukemia.
Consider `NC(=O)COC(=O)c1c(Cl)nc2sccn12`, for which the TGI in the assay on 786-0 renal is 36 µM; in the assay with HL-60(TB) leukemia, over 81.8 µM; in the assay with HOP-92 NSCLC, over 100 µM; in the assay on HT29 colon, over 100 µM; with NCI-H460 lung, over 100 µM; in the assay on OVCAR-3 ovarian, over 62.6 µM. Also, the TGI in the assay with OVCAR-8 ovarian was over 100 µM; in the assay on SF-295 CNS it was over 100 µM; in the assay on SN12C renal it was over 100 µM; in the assay on SR leukemia, 85.4 µM.
Take `O=C(CCN(C(=O)O)S(=O)(=O)c1ccc(NC(=O)c2ccccc2)cc1)NC1CCCCC1`: the TGI in the assay with 786-0 renal was 31.7 µM; in the assay with HL-60(TB) leukemia, 94.6 µM; in the assay on HOP-92 NSCLC, over 100 µM; in the assay with HT29 colon, 56.8 µM; with NCI-H460 lung, over 100 µM; in the assay with OVCAR-3 ovarian, over 100 µM. Also, the TGI with OVCAR-8 ovarian, in the assay on SF-295 CNS, with SN12C renal and in the assay with SR leukemia was over 100 µM each time.
As for `O=S(=O)(NC1=NCCN1C(=S)SN1CCn2c1nsc2=S)c1cccc(Cl)c1`, the GI50 is 19.9 µM in the assay on 786-0 renal; 13.1 µM in the assay with HL-60(TB) leukemia; 25.4 µM with HOP-92 NSCLC; 20.5 µM in the assay on HT29 colon; 22.5 µM in the assay with NCI-H460 lung; 12.9 µM with OVCAR-3 ovarian. In addition, the GI50 in the assay with OVCAR-8 ovarian was 26.4 µM; with SF-295 CNS, 21.8 µM; with SN12C renal it was 14.9 µM; in the assay with SR leukemia it was 4.89 µM. In addition, the TGI was found to be 55.3 µM with 786-0 renal; 80.5 µM with HL-60(TB) leukemia; 71.3 µM in the assay on HOP-92 NSCLC; 74 µM in the assay with HT29 colon; 72.9 µM in the assay on NCI-H460 lung; 28.5 µM in the assay on OVCAR-3 ovarian. The TGI was over 100 µM in the assay on OVCAR-8 ovarian, 58.1 µM in the assay with SF-295 CNS, 40.6 µM with SN12C renal and 50.7 µM with SR leukemia.
As to `NC1=NC(c2ccccc2)CC(c2cc(Cl)ccc2O)=N1` (centres undefined), the TGI with 786-0 renal was 32.5 µM; in the assay with HL-60(TB) leukemia, 40.1 µM; in the assay on HOP-92 NSCLC it was 33.5 µM; in the assay on HT29 colon it was 32.1 µM; in the assay on NCI-H460 lung, 29.3 µM; in the assay with OVCAR-3 ovarian, 31.6 µM. The TGI in the assay with OVCAR-8 ovarian came out at 29.8 µM; in the assay with SF-295 CNS it was 31 µM; with SN12C renal it was 26.9 µM; in the assay on SR leukemia, 36.6 µM.
`CCN(CC)CCCC(C)Nc1c2ccc(Cl)cc2nc2ccc(O)cc12` (centres undefined): the GI50 in the assay on 786-0 renal was 2.77 µM; in the assay with HL-60(TB) leukemia, 2.06 µM; in the assay on HOP-92 NSCLC, 2.05 µM; with HT29 colon, 1.22 µM; in the assay on NCI-H460 lung, 1.38 µM; with OVCAR-3 ovarian, 2.05 µM. Besides, the GI50 with OVCAR-8 ovarian was 1.73 µM; in the assay on SF-295 CNS it was 1.73 µM; in the assay on SN12C renal, 2.59 µM; with SR leukemia it was 2.07 µM. The TGI with 786-0 renal came out at 11.9 µM; in the assay on HL-60(TB) leukemia, 6.25 µM; in the assay on HOP-92 NSCLC, 12 µM; in the assay on HT29 colon, 5.39 µM; in the assay on NCI-H460 lung, 3.84 µM; in the assay on OVCAR-3 ovarian, 5.93 µM. Besides, the TGI with OVCAR-8 ovarian was determined as 11.7 µM; with SF-295 CNS it was 3.76 µM; in the assay on SN12C renal, 16.6 µM; with SR leukemia, 7.11 µM.
Take `CCOC(=O)/C(=C\c1ccccc1)C(=O)O`: the TGI with 786-0 renal, with HL-60(TB) leukemia, in the assay on HOP-92 NSCLC, in the assay on HT29 colon, in the assay with NCI-H460 lung and with OVCAR-3 ovarian was over 100 µM throughout. For the same compound, the TGI in the assay on OVCAR-8 ovarian, in the assay with SF-295 CNS, in the assay on SN12C renal and in the assay with SR leukemia was over 100 µM each time.
Take `O=[N+]([O-])c1ccc(C=NC2CCCCC2)cc1`: the TGI in the assay on 786-0 renal, with HL-60(TB) leukemia, in the assay with HOP-92 NSCLC, in the assay on HT29 colon, in the assay on NCI-H460 lung and in the assay on OVCAR-3 ovarian was over 100 µM in each case. The TGI in the assay on OVCAR-8 ovarian, in the assay on SF-295 CNS, in the assay on SN12C renal and in the assay with SR leukemia was over 100 µM in each case.
As for `CCCCCCCC(=O)OCC/C=C/C1OC1C1OC(=O)/C=C\C=C\c2nc(oc2C)/C=C(/C)CCC2OC2C1OC(=O)NC(C)=O` (centres undefined), the GI50 with 786-0 renal was 0.033 µM; in the assay on HL-60(TB) leukemia it was 0.114 µM; in the assay on HOP-92 NSCLC it was 0.0283 µM; in the assay with HT29 colon, 0.0397 µM; in the assay on NCI-H460 lung it was 0.0192 µM; with OVCAR-3 ovarian, 0.0537 µM. Moreover, the GI50 was 0.028 µM in the assay with OVCAR-8 ovarian, 0.00904 µM with SF-295 CNS, 0.0491 µM with SN12C renal and 0.0173 µM in the assay with SR leukemia. For the same compound, the TGI in the assay with 786-0 renal came out at 0.203 µM; with HL-60(TB) leukemia it was 2.07 µM; with HOP-92 NSCLC, 0.168 µM; in the assay on HT29 colon it was 1.12 µM; in the assay on NCI-H460 lung, 0.495 µM; with OVCAR-3 ovarian, 0.142 µM. Moreover, the TGI in the assay with OVCAR-8 ovarian was determined as 0.826 µM; in the assay on SF-295 CNS it was 0.0548 µM; in the assay with SN12C renal it was 0.554 µM; in the assay with SR leukemia, 0.89 µM.
As for `C#CCNC(=O)c1cccc2c1cc(C)n2-c1nc2c(c(NCc3ccccc3)n1)CCCC2`, the GI50 in the assay with 786-0 renal was 0.0292 µM; in the assay on HL-60(TB) leukemia it was 0.029 µM; with HOP-92 NSCLC, 0.0239 µM; with HT29 colon, 0.03 µM; in the assay with NCI-H460 lung, 0.0233 µM; with OVCAR-3 ovarian it was 0.0236 µM. Moreover, the GI50 is 0.0312 µM in the assay on OVCAR-8 ovarian, 0.0175 µM in the assay on SF-295 CNS, 0.0204 µM with SN12C renal and 0.0156 µM with SR leukemia. Further, the TGI in the assay with 786-0 renal was found to be 0.0788 µM; in the assay with HL-60(TB) leukemia, 0.191 µM; in the assay on HOP-92 NSCLC, 0.0669 µM; in the assay on HT29 colon it was 0.0924 µM; with NCI-H460 lung, 0.0723 µM; in the assay on OVCAR-3 ovarian, 0.057 µM. Besides, the TGI in the assay on OVCAR-8 ovarian is 0.363 µM; in the assay with SF-295 CNS, 0.0418 µM; in the assay on SN12C renal it was 0.0689 µM; in the assay with SR leukemia it was 0.165 µM.
